# In patent US20240002344A1, “COMPOUNDS, COMPOSITIONS AND METHODS FOR HISTONE LYSINE DEMETHYLASE INHIBITION” (FibroGen, Inc., priority 2020, published 2024):
# Legend:
# recombinant human KDM5B = molecular target: T1, recombinant human KDM5B (Homo sapiens, UniProt Q9UGL1); test: 14CO2 capture enzymatic assay (decarboxylation of [1-14C] αKG), KDM5B; format: biochemical; conditions: 10 μM [1-14C] αKG, 90 μM non-labeled αKG, 50 μM peptide substrate, 37° C., 1 hour, final 1% DMSO
# T1 sequence (Q9UGL1 374-755 limits assumed): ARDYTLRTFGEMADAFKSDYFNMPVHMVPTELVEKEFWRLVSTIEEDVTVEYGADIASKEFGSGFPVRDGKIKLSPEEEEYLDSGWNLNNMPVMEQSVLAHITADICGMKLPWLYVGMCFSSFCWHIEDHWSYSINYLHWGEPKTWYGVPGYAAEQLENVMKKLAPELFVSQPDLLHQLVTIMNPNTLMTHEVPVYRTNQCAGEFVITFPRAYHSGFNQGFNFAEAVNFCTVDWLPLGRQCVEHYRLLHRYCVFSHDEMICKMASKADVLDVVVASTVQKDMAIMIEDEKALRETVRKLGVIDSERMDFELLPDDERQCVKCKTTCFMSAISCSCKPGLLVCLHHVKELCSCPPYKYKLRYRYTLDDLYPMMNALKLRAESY
# Procedure, shortened: (§1)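 Truncated recombinant human KDM5B (H3K4me3 peptide) or KDM4A (H3K9me3 peptide), 50 μM peptide, with 10 μM [1-14C]αKG plus 90 μM unlabeled αKG, 10 μM Fe(SO4), 2 mM ascorbate in pH 7.4 HEPES, 1 h at 37 °C, 1% DMSO. Released 14CO2 trapped on Ba(OH)2 filter; IC50 by non-linear fit.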
# recombinant human KDM4A = molecular target: T2, recombinant human KDM4A (Homo sapiens, UniProt O75164); test: 14CO2 capture enzymatic assay (decarboxylation of [1-14C] αKG), KDM4A; format: biochemical; conditions: 10 μM [1-14C] αKG, 90 μM non-labeled αKG, 50 μM peptide substrate, 37° C., 1 hour, final 1% DMSO
# T2 construct: made in house
# T2 sequence (O75164 1-359 limits assumed): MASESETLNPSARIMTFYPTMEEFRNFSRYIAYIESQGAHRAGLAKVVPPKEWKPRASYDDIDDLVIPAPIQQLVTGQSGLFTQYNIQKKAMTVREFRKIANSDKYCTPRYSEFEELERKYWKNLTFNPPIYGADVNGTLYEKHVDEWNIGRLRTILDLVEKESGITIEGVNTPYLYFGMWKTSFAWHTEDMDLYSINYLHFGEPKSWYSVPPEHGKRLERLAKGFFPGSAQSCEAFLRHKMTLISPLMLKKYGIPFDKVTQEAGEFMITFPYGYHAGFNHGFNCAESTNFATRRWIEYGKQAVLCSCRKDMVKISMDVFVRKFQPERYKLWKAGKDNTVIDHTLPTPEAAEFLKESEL
# Procedure, shortened: as §1
IC50 (recombinant human KDM5B) [nM],IC50 (recombinant human KDM4A) [nM],Compound
40,12000,"N#Cc1cc(-c2ccc3ccccc3c2)nc(C(=O)CCC(=O)O)c1O [Example 77, 4-(4-Cyano-3-hydroxy-6-naphthalen-2-yl-pyridin-2-yl)-4-oxo-butyric acid]"
110,> 40000,"Cc1ccc(-c2cc(C#N)c(O)c(C(=O)CCC(=O)O)n2)cc1 [Example 73, 4-(4-Cyano-3-hydroxy-6-p-tolyl-pyridin-2-yl)-4-oxo-butyric acid]"
300,> 40000,"Cc1ccc(C(F)(F)F)cc1-c1cc(C#N)c(O)c(C(=O)CCC(=O)O)n1 [Example 97, 4-[4-Cyano-3-hydroxy-6-(2-methyl-5-trifluoromethyl-phenyl)-pyridin-2-yl]-4-oxo-butyric acid]"
340,> 40000,"COc1ccc(-c2cc(C#N)c(O)c(C(=O)CCC(=O)O)n2)c(Cl)c1 [Example 81, 4-[6-(2-Chloro-4-methoxy-phenyl)-4-cyano-3-hydroxy-pyridin-2-yl]-4-oxo-butyric acid]"
820,> 40000,"N#Cc1cc(Oc2ccc(Cl)cc2)cc(C(=O)CCC(=O)O)c1O [Example 137, 4-[5-(4-Chloro-phenoxy)-3-cyano-2-hydroxy-phenyl]-4-oxo-butyric acid]"
390,> 40000,"N#Cc1cc(-c2cccc3ncccc23)nc(C(=O)CCC(=O)O)c1O [Example 112, 4-(4-Cyano-3-hydroxy-6-quinolin-5-yl-pyridin-2-yl)-4-oxo-butyric acid]"
320,> 40000,"N#Cc1cc(-c2cccc(F)c2Cl)nc(C(=O)CCC(=O)O)c1O [Example 107, 4-[6-(2-Chloro-3-fluoro-phenyl)-4-cyano-3-hydroxy-pyridin-2-yl]-4-oxo-butyric acid]"
200,> 40000,"N#Cc1cc(Cc2cccc(-c3ccccc3)c2)nc(C(=O)CCC(=O)O)c1O [Example 51, 4-(6-Biphenyl-3-ylmethyl-4-cyano-3-hydroxy-pyridin-2-yl)-4-oxo-butyric acid]"
180,34000,"Cc1ccc(Cl)c(Cc2cc(C#N)c(O)c(C(=O)CCC(=O)O)n2)c1Cl [Example 155, 4-[4-Cyano-6-(2,6-dichloro-3-methyl-benzyl)-3-hydroxy-pyridin-2-yl]-4-oxo-butyric acid]"
430,13000,"N#Cc1ccccc1Cc1cc(C#N)c(O)c(C(=O)CCC(=O)O)n1 [Example 46, 4-[4-Cyano-6-(2-cyano-benzyl)-3-hydroxy-pyridin-2-yl]-4-oxo-butyric acid]"
990,> 40000,"CN(C(=O)c1ccccc1)c1cc(C#N)c(O)c(C(=O)CCC(=O)O)n1 [Example 159, 4-[6-(Benzoyl-N-methyl-amino)-4-cyano-3-hydroxy-pyridin-2-yl]-4-oxo-butyric acid]"
100,> 40000,"N#Cc1cc(Cc2cccc(Cl)c2)nc(C(=O)CCC(=O)O)c1O [Example 18, 4-[6-(3-Chloro-benzyl)-4-cyano-3-hydroxy-pyridin-2-yl]-4-oxo-butyric acid]"
190,> 40000,"N#Cc1cc(Cc2ccc(Cl)cc2)nc(C(=O)CCC(=O)O)c1O [Example 17, 4-[6-(4-Chloro-benzyl)-4-cyano-3-hydroxy-pyridin-2-yl]-4-oxo-butyric acid]"
190,> 40000,"N#Cc1cc(Oc2ccccc2)nc(C(=O)CCC(=O)O)c1O [Example 76, 4-(4-Cyano-3-hydroxy-6-phenoxy-pyridin-2-yl)-4-oxo-butyric acid]"
330,> 40000,"N#Cc1cc(C2CCCCC2)nc(C(=O)CCC(=O)O)c1O [Example 25, 4-(4-Cyano-6-cyclohexyl-3-hydroxy-pyridin-2-yl)-4-oxo-butyric acid]"
450,> 40000,"CCc1ccccc1-c1cc(C#N)c(O)c(C(=O)CCC(=O)O)n1 [Example 85, 4-[4-Cyano-6-(2-ethyl-phenyl)-3-hydroxy-pyridin-2-yl]-4-oxo-butyric acid]"
420,> 40000,"N#Cc1ccc(C(F)(F)F)cc1-c1cc(C#N)c(O)c(C(=O)CCC(=O)O)n1 [Example 105, 4-[4-Cyano-6-(2-cyano-5-trifluoromethyl-phenyl)-3-hydroxy-pyridin-2-yl]-4-oxo-butyric acid]"

IC50 (recombinant human KDM5B) [nM],IC50 (recombinant human KDM4A) [nM],Compound
250,> 40000,"N#Cc1cc(-c2ccc(F)c3ccccc23)nc(C(=O)CCC(=O)O)c1O [Example 109, 4-[4-Cyano-6-(4-fluoro-naphthalen-1-yl)-3-hydroxy-pyridin-2-yl]-4-oxo-butyric acid]"
150,22000,"N#Cc1cc(Cc2ccccc2C(F)(F)F)nc(C(=O)CCC(=O)O)c1O [Example 41, 4-[4-Cyano-3-hydroxy-6-(2-trifluoromethyl-benzyl)-pyridin-2-yl]-4-oxo-butyric acid]"
230,> 40000,"N#Cc1ccc(Cc2cc(C#N)c(O)c(C(=O)CCC(=O)O)n2)cc1 [Example 44, 4-[4-Cyano-6-(4-cyano-benzyl)-3-hydroxy-pyridin-2-yl]-4-oxo-butyric acid]"
70,3700,"Cc1ccccc1Cc1cc(C#N)c(O)c(C(=O)CCC(=O)O)n1 [Example 36, 4-[4-Cyano-3-hydroxy-6-(2-methyl-benzyl)-pyridin-2-yl]-4-oxo-butyric acid]"
160,> 40000,"N#Cc1cc(Cc2ccccc2)nc(C(=O)CCC(=O)O)c1O [Example 10, 4-(6-Benzyl-4-cyano-3-hydroxy-pyridin-2-yl)-4-oxo-butyric acid]"
90,> 40000,"N#Cc1cc(Sc2ccccc2)nc(C(=O)CCC(=O)O)c1O [Example 78, 4-(4-Cyano-3-hydroxy-6-phenylsulfanyl-pyridin-2-yl)-4-oxo-butyric acid]"
130,16000,"N#Cc1cc(-c2ccncc2)nc(C(=O)CCC(=O)O)c1O [Example 12, 4-(4-Cyano-5-hydroxy-[2,4′]bipyridinyl-6-yl)-4-oxo-butyric acid]"
450,36000,"O=C(O)CCC(=O)c1nc(Br)cc(Br)c1O [Example 1, 4-(4,6-Dibromo-3-hydroxy-pyridin-2-yl)-4-oxo-butyric acid]"
170,> 40000,"N#Cc1cc(-c2cccc(F)c2)nc(C(=O)CCC(=O)O)c1O [Example 20, 4-[4-Cyano-6-(3-fluoro-phenyl)-3-hydroxy-pyridin-2-yl]-4-oxo-butyric acid]"
70,2900,"N#Cc1cc(Cc2c(Cl)cc(F)cc2Cl)nc(C(=O)CCC(=O)O)c1O [Example 126, 4-[4-Cyano-6-(2,6-dichloro-4-fluoro-benzyl)-3-hydroxy-pyridin-2-yl]-4-oxo-butyric acid]"
160,> 40000,"Cc1cc(C)c(Cc2cc(C#N)c(O)c(C(=O)CCC(=O)O)n2)c(C)c1 [Example 124, 4-[4-Cyano-3-hydroxy-6-(2,4,6-trimethyl-benzyl)-pyridin-2-yl]-4-oxo-butyric acid]"
200,> 40000,"N#Cc1cc(-c2cccc(C(F)(F)F)c2)nc(C(=O)CCC(=O)O)c1O [Example 28, 4-[4-Cyano-3-hydroxy-6-(3-trifluoromethyl-phenyl)-pyridin-2-yl]-4-oxo-butyric acid]"
150,37000,"N#Cc1cc(Cc2ccccc2F)nc(C(=O)CCC(=O)O)c1O [Example 43, 4-[4-Cyano-6-(2-fluoro-benzyl)-3-hydroxy-pyridin-2-yl]-4-oxo-butyric acid]"
330,> 40000,"Cc1ccc(-c2cc(C#N)c(O)c(C(=O)CCC(=O)O)n2)c(C)c1 [Example 93, 4-[4-Cyano-6-(2,4-dimethyl-phenyl)-3-hydroxy-pyridin-2-yl]-4-oxo-butyric acid]"
450,9700,"Cc1cc(Cl)cc(C)c1Cc1cc(C#N)c(O)c(C(=O)CCC(=O)O)n1 [Example 152, 4-[4-Cyano-6-(4-chloro-2,6-dimethyl-benzyl)-3-hydroxy-pyridin-2-yl]-4-oxo-butyric acid]"
450,> 40000,"Cc1cc(F)ccc1-c1cc(C#N)c(O)c(C(=O)CCC(=O)O)n1 [Example 86, 4-[4-Cyano-6-(4-fluoro-2-methyl-phenyl)-3-hydroxy-pyridin-2-yl]-4-oxo-butyric acid]"
180,14000,"N#Cc1cc(Cc2cccc(Cl)c2Cl)nc(C(=O)CCC(=O)O)c1O [Example 65, 4-[4-Cyano-6-(2,3-dichloro-benzyl)-3-hydroxy-pyridin-2-yl]-4-oxo-butyric acid]"
